For one assay, the system named is Eco-tolC. Description: Bacterial susceptibility testing in liquid media, Eco-tolC MIC. As to conditions: for MIC: Escherichia coli, read-out: Eco-tolC MIC.
For a further assay, the system named is Spn548. Put plainly: Bacterial susceptibility testing in liquid media, Spn548 MIC. As to conditions: Streptococcus pneumoniae, 24 h, read-out: Spn548 Mean MIC.
The next assay has as its system M. tuberculosis. Put plainly: Mycobacteria susceptibility testing, Microplate Alamar Blue Assay, Mtu MIC. The class given is cell-based, Mycobacterium tuberculosis (Mtu). As to conditions: for MIC: Mycobacterium tuberculosis.
Another assay concerns the target T1, Msm. GyrB (Mycolicibacterium smegmatis, UniProt A0QNE0).
T1 construct: 15 nM Msm; GyrB, 650 μM ATP, and compound in dimethyl sulfoxide
Description: Msmegmatis GyrB enzyme assay (ATPase, malachite green phosphate detection). As to conditions: read-out: Msm_GyrB IC50. The class given is biochemical. On the procedure:
Compounds may be tested for inhibition of GyrB ATPase activity using an ammonium molybdate/malachite green-based phosphate detection assay (Lanzetta, P. A., L. J. Alvarez, P. S. Reinach, and O. A. Candia, 1979, 100: 95-97; Innova Biosciences malachite green detection kit). Assays can be performed in multi-well plates in 50 μl reactions containing: 50 mM HEPES buffer pH 7.7, 250 mM potassium glutamate, 200 mM potassium chloride, 2 mM magnesium chloride, 2% glycerol, 1 mM 1,4-Dithio-DL-threitol, 0.005% Brij-35, 15 nM Msm. GyrB, 650 μM ATP, and compound in dimethyl sulfoxide. Reactions can be quenched with 12.5 μl of ammonium molybdate/malachite green detection reagent (Pi color lock gold & accelerator mix; Innova Biosciences), followed by the addition of 5 μl of stabilizer (Innova Biosciences) after 5 min of incubation.

≈ marks a conversion by molar mass, not a printed value.

T1 sequence (A0QNE0 whole entry): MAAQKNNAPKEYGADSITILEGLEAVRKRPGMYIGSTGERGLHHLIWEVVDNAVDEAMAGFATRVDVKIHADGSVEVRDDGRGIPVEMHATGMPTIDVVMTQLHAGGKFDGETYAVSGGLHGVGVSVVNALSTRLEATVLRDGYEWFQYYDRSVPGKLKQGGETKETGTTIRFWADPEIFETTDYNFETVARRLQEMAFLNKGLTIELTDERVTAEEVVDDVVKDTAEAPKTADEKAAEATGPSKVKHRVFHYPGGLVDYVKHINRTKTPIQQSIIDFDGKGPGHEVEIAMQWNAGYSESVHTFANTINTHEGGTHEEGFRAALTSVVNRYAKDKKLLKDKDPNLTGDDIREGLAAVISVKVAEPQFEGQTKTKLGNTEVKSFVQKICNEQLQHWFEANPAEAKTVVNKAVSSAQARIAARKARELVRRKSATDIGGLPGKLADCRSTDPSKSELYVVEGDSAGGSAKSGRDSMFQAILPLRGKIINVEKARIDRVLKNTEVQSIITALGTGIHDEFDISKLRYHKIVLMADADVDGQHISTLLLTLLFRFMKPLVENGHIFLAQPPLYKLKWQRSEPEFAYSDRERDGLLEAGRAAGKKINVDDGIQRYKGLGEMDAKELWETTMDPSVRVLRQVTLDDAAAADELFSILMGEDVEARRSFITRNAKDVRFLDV
Description for Eco-tolC: Compounds may be tested for antimicrobial activity by susceptibility testing in liquid media. Compounds may be dissolved in dimethylsulfoxide and tested in 10 doubling dilutions in the susceptibility assays. The organisms used in the assay may be grown overnight on suitable agar media and then suspended in a liquid medium appropriate for the growth of the organism. The suspension can be a 0.5 McFarland and a further 1 in 10 dilution can be made into the same liquid medium to prepare the final organism suspension in 100 μL. Plates can be incubated under appropriate conditions at 37° C. for 24 hrs prior to reading.

For `CCNC(=O)Nc1nc2cc(-c3cncnc3)c(OCC3CCOC3)nc2s1` (single isomer, unassigned; isomer 1) [Example 68, 1-ethyl-3-[6-pyrimidin-5-yl-5-(tetrahydrofuran-3-ylmethoxy)[1,3]thiazolo[5,4-b]pyridin-2-yl]urea (Chiral isomer 1)], the MIC with Eco-tolC was 0.5 µg/mL (≈ 1.25 µM); in the assay on Spn548, 0.125 µg/mL (≈ 0.312 µM); in the assay on M. tuberculosis it was 0.0884 µg/mL (≈ 0.221 µM).

Consider `CCNC(=O)Nc1nc2cc(-c3cncnc3)c(OCC3CCOC3)nc2s1` (single isomer, unassigned; isomer 2) [Example 69, 1-ethyl-3-[6-pyrimidin-5-yl-5-(tetrahydrofuran-3-ylmethoxy)[1,3]thiazolo[5,4-b]pyridin-2-yl]urea (Chiral isomer 2)], for which the “Eco-tolC MIC” value with Eco-tolC came to 0.25 µg/mL. The “Mtu MIC” value with M. tuberculosis worked out at 0.08839 µg/mL.

As to `C=CCNC(=O)Nc1nc2cc(Cl)cnc2s1` [Example 1, 1-Allyl-3-(6-chloro-thiazolo [5,4-b]pyridin-2-yl)-urea], the minimum inhibitory concentration (MIC) with Eco-tolC was 16 µg/mL (≈ 59.5 µM); in the assay with Spn548 it was 8 µg/mL (≈ 29.8 µM); with M. tuberculosis, 16 µg/mL (≈ 59.5 µM). Further, at Msm. GyrB, the concentration for half-maximal inhibition (IC50) was 191 nM.

Take `C=CCNC(=O)Nc1nc2cc(Br)c(C)nc2s1` [Example 2, 1-Allyl-3-(6-bromo-5-methyl-thiazolo [5,4-b]pyridin-2-yl)-urea]: the MIC with Eco-tolC was 32 µg/mL (≈ 97.8 µM); in the assay with Spn548, above 32 µg/mL. The IC50 at Msm. GyrB was determined as 2190 nM.

With `C=CCNC(=O)Nc1nc2cc(-c3cccnc3)cnc2s1` [Example 3, 1-allyl-3-[6-(3-pyridyl)thiazolo [5,4-b]pyridin-2-yl] urea], the MIC in the assay on Eco-tolC is above 64 µg/mL; in the assay with Spn548 it was 1 µg/mL (≈ 3.21 µM); with M. tuberculosis it was 10.1 µg/mL (≈ 32.4 µM).

As to `CCNC(=O)Nc1nc2cc(-c3cnc(OC)nc3)cnc2s1` [Example 4, 1-ethyl-3-[6-(2-methoxypyrimidin-5-yl)thiazolo [5,4-b]pyridin-2-yl] urea], the minimum inhibitory concentration (MIC) in the assay on Eco-tolC was above 64 µg/mL; in the assay with Spn548, 0.5 µg/mL (≈ 1.51 µM); against M. tuberculosis, above 8 µg/mL. In addition, the IC50 on Msm. GyrB was determined as 140 nM.

`CCNC(=O)Nc1nc2cc(-c3cccnc3)cnc2s1` [Example 5, 1-Ethyl-3-(6-pyridin-3-yl-thiazolo [5,4-b]pyridin-2-yl)-urea]: the minimal inhibitory concentration (MIC) in the assay with Eco-tolC was found to be 8.83 µg/mL (≈ 29.5 µM); in the assay on Spn548, 1.56 µg/mL (≈ 5.21 µM).

`C=CCNC(=O)Nc1nc2cc(-c3cncnc3)c(C)nc2s1` [Example 6, 1-Allyl-3-(5-methyl-6-pyrimidin-5-yl-thiazolo [5,4-b]pyridin-2-yl)-urea]: the MIC came to 32.3 µg/mL (≈ 99 µM) with Eco-tolC, 1.01 µg/mL (≈ 3.09 µM) in the assay with Spn548 and 8 µg/mL (≈ 24.5 µM) with M. tuberculosis. Moreover, the concentration for half-maximal inhibition (IC50) on Msm. GyrB is 151 nM.

As for `C=CCNC(=O)Nc1nc2cc(-c3cnc(OC)nc3)c(C)nc2s1` [Example 7, 1-Allyl-3-[6-(2-methoxy-pyrimidin-5-yl)-5-methyl-thiazolo [5,4-b]pyridin-2-yl]-urea], the values for the MIC with Eco-tolC, in the assay on Spn548 and against M. tuberculosis were above 32 µg/mL, 0.0625 µg/mL (≈ 0.175 µM) and 32 µg/mL (≈ 89.8 µM), respectively. Moreover, the IC50 on Msm. GyrB turned out to be 239 nM.

Take `C=CCNC(=O)Nc1nc2cc(-c3cncc(C(=O)OCC)c3)c(C)nc2s1` [Example 8, 5-[2-(3-Allyl-ureido)-5-methyl-thiazolo [5,4-b]pyridin-6-yl]-nicotinic acid ethyl ester]: the MIC with Eco-tolC was above 39.8 µg/mL; with Spn548 it was above 39.8 µg/mL; against M. tuberculosis, above 32 µg/mL. Also, the IC50 on Msm. GyrB was 151 nM.

Take `C=CCNC(=O)Nc1nc2cc(-c3cccnc3)c(OCCN3CCOCC3)nc2s1` [Example 28, 1-[5-(2-morpholin-4-ylethoxy)-6-pyridin-3-yl[1,3]thiazolo[5,4-b]pyridin-2-yl]-3-prop-2-en-1-ylurea]: the MIC is above 32 µg/mL in the assay with Eco-tolC, 4 µg/mL (≈ 9.08 µM) in the assay on Spn548 and above 22.6 µg/mL against M. tuberculosis.

For the compound `C=CCNC(=O)Nc1nc2cc(-c3cccnc3)c(OCCOC)nc2s1` [Example 29, 1-[5-(2-methoxyethoxy)-6-pyridin-3-yl[1,3]thiazolo[5,4-b]pyridin-2-yl]-3-prop-2-en-1-ylurea], the MIC in the assay on Eco-tolC came to 1.22 µg/mL (≈ 3.16 µM); in the assay on Spn548, 0.152 µg/mL (≈ 0.395 µM); with M. tuberculosis, 4 µg/mL (≈ 10.4 µM).

With `CCNC(=O)Nc1nc2cc(-c3cncnc3)c(OCC3CCOC3)nc2s1` (stereo not shown) [Example 36, 1-ethyl-3-[6-pyrimidin-5-yl-5-(tetrahydrofuran-3-ylmethoxy)[1,3]thiazolo[5,4-b]pyridin-2-yl]urea], the MIC in the assay with Eco-tolC was found to be 0.125 µg/mL (≈ 0.312 µM); in the assay on Spn548, 0.0625 µg/mL (≈ 0.156 µM); against M. tuberculosis it was 0.0544 µg/mL (≈ 0.136 µM).

As to `CCNC(=O)Nc1nc2cc(-c3ccc(F)nc3)c(OCC3CCOC3)nc2s1` (stereo not shown) [Example 40, 1-ethyl-3-[6-(6-fluoropyridin-3-yl)-5-(tetrahydrofuran-3-ylmethoxy)[1,3]thiazolo[5,4-b]pyridin-2-yl]urea], the MIC in the assay on Eco-tolC was 0.571 µg/mL (≈ 1.37 µM); in the assay with Spn548 it was 0.0714 µg/mL (≈ 0.171 µM); in the assay with M. tuberculosis, 0.354 µg/mL (≈ 0.847 µM).

Turning to `CCNC(=O)Nc1nc2cc(-c3cccnc3)c(OCC3CCOC3)nc2s1` (stereo not shown) [Example 42, 1-ethyl-3-[6-pyridin-3-yl-5-(tetrahydrofuran-3-ylmethoxy)[1,3]thiazolo[5,4-b]pyridin-2-yl]urea], the MIC is 1.25 µg/mL (≈ 3.12 µM) in the assay on Eco-tolC, 0.078 µg/mL (≈ 0.195 µM) in the assay with Spn548 and 0.42 µg/mL (≈ 1.05 µM) with M. tuberculosis.

`CCNC(=O)Nc1nc2cc(-c3cncnc3)c(OCCOC)nc2s1` [Example 44, 1-ethyl-3-[5-(2-methoxyethoxy)-6-pyrimidin-5-yl[1,3]thiazolo[5,4-b]pyridin-2-yl]urea]: the values for the MIC with Eco-tolC, with Spn548 and against M. tuberculosis were 1.17 µg/mL (≈ 3.12 µM), 0.0731 µg/mL (≈ 0.195 µM) and 0.25 µg/mL (≈ 0.668 µM), respectively.

As to `CCNC(=O)Nc1nc2cc(-c3cccnc3)c(OCCOC)nc2s1` [Example 45, 1-ethyl-3-[5-(2-methoxyethoxy)-6-pyridin-3-yl[1,3]thiazolo[5,4-b]pyridin-2-yl]urea], the MIC with Eco-tolC turned out to be 4.67 µg/mL (≈ 12.5 µM); in the assay on Spn548, 0.292 µg/mL (≈ 0.781 µM); against M. tuberculosis it was 1 µg/mL (≈ 2.68 µM).

As for `CCNC(=O)Nc1nc2cc(-c3ccc(C#N)nc3)c(OCC3CCOC3)nc2s1` (stereo not shown) [Example 54, 1-[6-(6-cyanopyridin-3-yl)-5-(tetrahydrofuran-3-ylmethoxy)[1,3]thiazolo[5,4-b]pyridin-2-yl]-3-ethylurea], the minimum inhibitory concentration (MIC) with Eco-tolC was determined as 1 µg/mL (≈ 2.36 µM); with Spn548, 0.0625 µg/mL (≈ 0.147 µM); in the assay on M. tuberculosis it was 0.177 µg/mL (≈ 0.417 µM).

For the compound `CCNC(=O)Nc1nc2cc(-c3cncc(C#N)c3)c(OCC3CCOC3)nc2s1` (stereo not shown) [Example 57, 1-[6-(5-cyanopyridin-3-yl)-5-(tetrahydrofuran-3-ylmethoxy)[1,3]thiazolo[5,4-b]pyridin-2-yl]-3-ethylurea], the MIC was determined as 0.0625 µg/mL (≈ 0.147 µM) in the assay with Eco-tolC, 0.0625 µg/mL (≈ 0.147 µM) with Spn548 and 0.25 µg/mL (≈ 0.589 µM) in the assay with M. tuberculosis.

`CCNC(=O)Nc1nc2cc(-c3cnn(C)c3)c(OCC3CCOC3)nc2s1` (stereo not shown) [Example 71, 1-ethyl-3-[6-(1-methyl-1H-pyrazol-4-yl)-5-(tetrahydrofuran-3-ylmethoxy)[1,3]thiazolo[5,4-b]pyridin-2-yl]urea]: the figures for the MIC in the assay with Eco-tolC, in the assay with Spn548 and in the assay on M. tuberculosis were 0.5 µg/mL (≈ 1.24 µM), 0.125 µg/mL (≈ 0.311 µM) and 0.707 µg/mL (≈ 1.76 µM), respectively.

As to `CCNC(=O)Nc1nc2cc(-c3cncnc3)c(OC(C)C)nc2s1` [Example 73, 1-ethyl-3-[5-(1-methylethoxy)-6-pyrimidin-5-yl[1,3]thiazolo[5,4-b]pyridin-2-yl]urea], the MIC in the assay on M. tuberculosis was found to be 0.125 µg/mL (≈ 0.349 µM). At Msm. GyrB, the IC50 stood at 5.2 nM.

`CCNC(=O)Nc1nc2cc(-c3ccc(F)nc3)c(OC(C)C)nc2s1` [Example 74, 1-ethyl-3-[6-(6-fluoropyridin-3-yl)-5-(1-methylethoxy)[1,3]thiazolo[5,4-b]pyridin-2-yl]urea] had an MIC in the assay on M. tuberculosis of 1 µg/mL (≈ 2.66 µM). Further, the IC50 at Msm. GyrB stood at 10 nM.

`CCNC(=O)Nc1nc2cc(-c3cnc(C#N)nc3)c(OC3CCOC3)nc2s1` (stereo not shown) [Example 75, 1-[6-(2-cyanopyrimidin-5-yl)-5-(tetrahydrofuran-3-yloxy)[1,3]thiazolo[5,4-b]pyridin-2-yl]-3-ethylurea] showed an MIC with M. tuberculosis below 0.06 µg/mL. The IC50 on Msm. GyrB is below 2.54 nM.

`CCNC(=O)Nc1nc2cc(-c3ccc(F)nc3)c(OC3CCOC3)nc2s1` (stereo not shown) [Example 76, 1-ethyl-3-[6-(6-fluoropyridin-3-yl)-5-(tetrahydrofuran-3-yloxy)[1,3]thiazolo[5,4-b]pyridin-2-yl]urea]: inhibition of growth in the assay with M. tuberculosis (MIC) required 0.5 µg/mL (≈ 1.24 µM). In addition, the IC50 on Msm. GyrB is 3.54 nM.

On to `CCNC(=O)Nc1nc2cc(-c3cnc(C(F)(F)F)nc3)c(OCC3CCOC3)nc2s1` (stereo not shown) [Example 77, 1-ethyl-3-{5-(tetrahydrofuran-3-ylmethoxy)-6-[2-(trifluoromethyl)pyrimidin-5-yl][1,3]thiazolo[5,4-b]pyridin-2-yl}urea], for which inhibition of growth in the assay on M. tuberculosis (MIC) required 2.83 µg/mL (≈ 6.04 µM). The IC50 at Msm. GyrB was determined as 2.9 nM.

For the compound `CCNC(=O)Nc1nc2cc(-c3cncc(-c4n[nH]c(=O)o4)c3)c(OCC3CCOC3)nc2s1` (stereo not shown) [Example 78, 1-ethyl-3-{6-[5-(5-oxo-4,5-dihydro-1,3,4-oxadiazol-2-yl)pyridin-3-yl]-5-(tetrahydrofuran-3-ylmethoxy)[1,3]thiazolo[5,4-b]pyridin-2-yl}urea], in the assay with M. tuberculosis, it took 8 µg/mL (≈ 16.5 µM) to inhibit growth (MIC). In addition, the half-inhibitory concentration (IC50) at Msm. GyrB was below 2.54 nM.

In turn, `CCNC(=O)Nc1nc2cc(-c3cncc(F)c3)c(OCC3CCOC3)nc2s1` (stereo not shown) [Example 79, 1-ethyl-3-[6-(5-fluoropyridin-3-yl)-5-(tetrahydrofuran-3-ylmethoxy)[1,3]thiazolo[5,4-b]pyridin-2-yl]urea] displayed an MIC against M. tuberculosis of 0.354 µg/mL (≈ 0.847 µM).
